From ChEMBL document CHEMBL5143647, “Design, synthesis and biological evaluation of novel pyridine derivatives as gut-selective NaPi2b inhibitors” (Bioorg Med Chem Lett, 2022) come the findings set out here.

The structures appear in SMILES notation. pIC50: −log10 of the molar value. Converted amounts (≈) assume the structure as drawn. The source made the active and inactive calls. No cut-off for these calls is given here.

The target of series [1] is T1, Sodium-dependent phosphate transport protein 2B (Homo sapiens) (UniProt O95436).
T1 sequence (whole entry): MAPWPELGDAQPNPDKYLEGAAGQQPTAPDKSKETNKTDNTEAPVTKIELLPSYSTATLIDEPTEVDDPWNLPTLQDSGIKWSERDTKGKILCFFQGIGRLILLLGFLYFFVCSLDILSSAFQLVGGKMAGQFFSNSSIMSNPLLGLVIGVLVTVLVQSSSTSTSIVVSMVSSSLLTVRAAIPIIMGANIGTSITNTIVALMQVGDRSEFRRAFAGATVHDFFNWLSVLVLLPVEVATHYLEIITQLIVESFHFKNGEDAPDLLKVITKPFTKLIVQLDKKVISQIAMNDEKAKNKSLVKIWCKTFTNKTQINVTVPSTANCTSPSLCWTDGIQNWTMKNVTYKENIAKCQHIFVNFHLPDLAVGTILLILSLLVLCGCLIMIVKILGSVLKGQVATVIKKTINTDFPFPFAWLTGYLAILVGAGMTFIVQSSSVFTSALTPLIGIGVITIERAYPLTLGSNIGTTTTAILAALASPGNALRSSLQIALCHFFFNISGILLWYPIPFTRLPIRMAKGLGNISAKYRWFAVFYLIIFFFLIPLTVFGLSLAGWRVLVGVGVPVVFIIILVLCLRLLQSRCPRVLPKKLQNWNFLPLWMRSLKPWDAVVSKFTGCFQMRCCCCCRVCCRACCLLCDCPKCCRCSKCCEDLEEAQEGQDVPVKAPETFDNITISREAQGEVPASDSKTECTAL
In words: Inhibition of human NaPi2b at 1 uM relative to control.

Series [2] concerns the target T2, Sodium-dependent phosphate transport protein 2B (Homo sapiens, UniProt O95436).
T2 sequence (O95436 whole entry): T1 sequence (whole entry)
Put plainly: Inhibition of human NaPi2b stably expressed in CHO-K1 cells assessed as reduction in H2[33P]O4 uptake incubated for 30 mins by liquid scintillation counting method. It is filed as cell-based.

A further series has as its system Rattus norvegicus. In words: In vivo inhibition of NaPi2b in Sprague-Dawley rat assessed as reduction in phosphate absorption at 10 mg/kg, po after 5 mins followed by NaH2PO4 containing 32P-phosphate solution treatment and measured after 15 to 30 mins by liquid scintillation counting method. It is filed as functional, organism-based. The conditions noted are these: dose […], time 35.0 min.

Series [3] is described as follows: Drug excretion in Sprague-Dawley rat feces at 10 mg/kg, po measured for 24 hrs by liquid chromatography-tandem mass spectrometry relative to control. It is filed as ADME, organism-based. To be noted: faeces, read-out: Drug excretion.
Series [4] in a line: Solubility in FeSSIF at pH 4.9 incubated for 25 degC for 2 hrs further incubated water bath at 35 degC for 22 hrs by HPLC analysis. It is filed as physicochemical.
Series [5] can be described thus: Oral bioavailability in Sprague-Dawley rat at 10 mg/kg measured for 24 hrs by liquid chromatography-tandem mass spectrometry relative to control. It is filed as ADME, organism-based. The conditions noted are these: in vivo.
Series [6] in a line: Solubility in FaSSIF at pH 6.6 incubated for 25 degC for 2 hrs further incubated water bath at 35 degC for 22 hrs by HPLC analysis. It is filed as physicochemical.
Series [7] is described as follows: Oral bioavailability in Sprague-Dawley rat at 11.9 mg/kg measured for 24 hrs by liquid chromatography-tandem mass spectrometry. It is filed as ADME, organism-based. The conditions noted are these: in vivo.

The compound `CCC(CC)N(CCN(C)C(=O)CCC(=O)O)Cc1cccc(C(=O)Nc2[nH]c3c(c2C(=O)Nc2ccc(CCc4ccc(C(=O)O)cc4)cc2)CCCC3)c1` had an inhibition in series [1] of 87%.
`CCC(CC)N(CCN(C)C(=O)CCC(=O)O)Cc1cccc(C(=O)Nc2ccc(N3CCOCC3)nc2C(=O)Nc2ccc(CCc3ccc(C(=O)O)cc3)cc2)c1`: the pIC50 in series [2] was 6.69.
With `CCC(CC)N(CCN(C)C(=O)CCC(=O)O)Cc1cccc(C(=O)Nc2ccc(N3CCCCC3)nc2C(=O)Nc2ccc(Oc3ccc(C(=O)O)cc3)cc2)c1`, the negative-log IC50 (pIC50) in series [2] is 6.79.
For the compound `CCN([C@H]1CC[C@H](C(=O)NCCOCCOCCOCCO)CC1)S(=O)(=O)c1cccc(C(=O)Nc2ccc(N3CCCCC3)nc2C(=O)Nc2ccc(CCc3ccc(C(=O)O)cc3)cc2)c1`, the inhibition result in the series on Rattus norvegicus was “Active”. Further, the dose excreted at 24 h in series [3] was 99.1%. In addition, the solubility at 24 h in series [4] amounted to 15.9 µg/mL (≈ 16.6 µM); in series [6], 20.5 µg/mL (≈ 21.4 µM). For the same compound, the bioavailability in series [5] amounted to 2.7%.
For the compound `CCC(CC)N(CCN(C)C(=O)CCC(=O)O)Cc1cccc(C(=O)Nc2ccc(N3CCCCC3)nc2C(=O)Nc2ccc(Oc3ccc(C(=O)O)cn3)cc2)c1`, in series [2], the negative-log IC50 (pIC50) was 6.15.
For the compound `CCN([C@H]1CC[C@H](C(=O)O)CC1)S(=O)(=O)c1cccc(C(=O)Nc2ccc(N3CCCCC3)nc2C(=O)Nc2ccc(CCc3ccc(C(=O)NS(=O)(=O)NC)cc3)cc2)c1`, the bioavailability in series [7] came to 10.4%.
